In ChEMBL document CHEMBL4321854, “Discovery of a First-in-Class Mitogen-Activated Protein Kinase Kinase 1/2 Degrader” (J Med Chem, 2019):
The source made the active and inactive calls. The rule behind the calls is not given here.

Key:
HT-29 [1] = test: Antiproliferative activity against human HT-29 cells assessed as reduction in cell growth after 3 days by MTT assay; assay type: functional
HT-29 [2] = test: Effect on total ERK protein expression in human HT-29 cells at 0.001 to 5 uM after 24 hrs by Western blot analysis; assay type: functional, cell-based
[3] = target: von Hippel-Lindau disease tumor suppressor/Cullin-9 (Homo sapiens) (UniProt P40337+Q8IWT3); test: Protac activity against VHL/cullin9 in human HT-29 cells harboring with BRAF V600E variant assessed as reduction in Cullin9 protein level at 0.1 uM after 10 hrs by LC-MS based Volcano plot analysis; assay type: cell-based
Chain of von Hippel-Lindau disease tumor suppressor/Cullin-9 (Homo sapiens) (P40337 whole entry, looked up): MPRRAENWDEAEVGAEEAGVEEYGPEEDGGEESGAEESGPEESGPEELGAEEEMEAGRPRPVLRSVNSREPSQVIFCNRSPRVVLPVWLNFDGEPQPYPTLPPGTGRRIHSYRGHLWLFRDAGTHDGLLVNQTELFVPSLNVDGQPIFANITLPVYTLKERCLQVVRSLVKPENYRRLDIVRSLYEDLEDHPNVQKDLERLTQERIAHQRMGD
Chain of von Hippel-Lindau disease tumor suppressor/Cullin-9 (Homo sapiens) (Q8IWT3 whole entry, looked up): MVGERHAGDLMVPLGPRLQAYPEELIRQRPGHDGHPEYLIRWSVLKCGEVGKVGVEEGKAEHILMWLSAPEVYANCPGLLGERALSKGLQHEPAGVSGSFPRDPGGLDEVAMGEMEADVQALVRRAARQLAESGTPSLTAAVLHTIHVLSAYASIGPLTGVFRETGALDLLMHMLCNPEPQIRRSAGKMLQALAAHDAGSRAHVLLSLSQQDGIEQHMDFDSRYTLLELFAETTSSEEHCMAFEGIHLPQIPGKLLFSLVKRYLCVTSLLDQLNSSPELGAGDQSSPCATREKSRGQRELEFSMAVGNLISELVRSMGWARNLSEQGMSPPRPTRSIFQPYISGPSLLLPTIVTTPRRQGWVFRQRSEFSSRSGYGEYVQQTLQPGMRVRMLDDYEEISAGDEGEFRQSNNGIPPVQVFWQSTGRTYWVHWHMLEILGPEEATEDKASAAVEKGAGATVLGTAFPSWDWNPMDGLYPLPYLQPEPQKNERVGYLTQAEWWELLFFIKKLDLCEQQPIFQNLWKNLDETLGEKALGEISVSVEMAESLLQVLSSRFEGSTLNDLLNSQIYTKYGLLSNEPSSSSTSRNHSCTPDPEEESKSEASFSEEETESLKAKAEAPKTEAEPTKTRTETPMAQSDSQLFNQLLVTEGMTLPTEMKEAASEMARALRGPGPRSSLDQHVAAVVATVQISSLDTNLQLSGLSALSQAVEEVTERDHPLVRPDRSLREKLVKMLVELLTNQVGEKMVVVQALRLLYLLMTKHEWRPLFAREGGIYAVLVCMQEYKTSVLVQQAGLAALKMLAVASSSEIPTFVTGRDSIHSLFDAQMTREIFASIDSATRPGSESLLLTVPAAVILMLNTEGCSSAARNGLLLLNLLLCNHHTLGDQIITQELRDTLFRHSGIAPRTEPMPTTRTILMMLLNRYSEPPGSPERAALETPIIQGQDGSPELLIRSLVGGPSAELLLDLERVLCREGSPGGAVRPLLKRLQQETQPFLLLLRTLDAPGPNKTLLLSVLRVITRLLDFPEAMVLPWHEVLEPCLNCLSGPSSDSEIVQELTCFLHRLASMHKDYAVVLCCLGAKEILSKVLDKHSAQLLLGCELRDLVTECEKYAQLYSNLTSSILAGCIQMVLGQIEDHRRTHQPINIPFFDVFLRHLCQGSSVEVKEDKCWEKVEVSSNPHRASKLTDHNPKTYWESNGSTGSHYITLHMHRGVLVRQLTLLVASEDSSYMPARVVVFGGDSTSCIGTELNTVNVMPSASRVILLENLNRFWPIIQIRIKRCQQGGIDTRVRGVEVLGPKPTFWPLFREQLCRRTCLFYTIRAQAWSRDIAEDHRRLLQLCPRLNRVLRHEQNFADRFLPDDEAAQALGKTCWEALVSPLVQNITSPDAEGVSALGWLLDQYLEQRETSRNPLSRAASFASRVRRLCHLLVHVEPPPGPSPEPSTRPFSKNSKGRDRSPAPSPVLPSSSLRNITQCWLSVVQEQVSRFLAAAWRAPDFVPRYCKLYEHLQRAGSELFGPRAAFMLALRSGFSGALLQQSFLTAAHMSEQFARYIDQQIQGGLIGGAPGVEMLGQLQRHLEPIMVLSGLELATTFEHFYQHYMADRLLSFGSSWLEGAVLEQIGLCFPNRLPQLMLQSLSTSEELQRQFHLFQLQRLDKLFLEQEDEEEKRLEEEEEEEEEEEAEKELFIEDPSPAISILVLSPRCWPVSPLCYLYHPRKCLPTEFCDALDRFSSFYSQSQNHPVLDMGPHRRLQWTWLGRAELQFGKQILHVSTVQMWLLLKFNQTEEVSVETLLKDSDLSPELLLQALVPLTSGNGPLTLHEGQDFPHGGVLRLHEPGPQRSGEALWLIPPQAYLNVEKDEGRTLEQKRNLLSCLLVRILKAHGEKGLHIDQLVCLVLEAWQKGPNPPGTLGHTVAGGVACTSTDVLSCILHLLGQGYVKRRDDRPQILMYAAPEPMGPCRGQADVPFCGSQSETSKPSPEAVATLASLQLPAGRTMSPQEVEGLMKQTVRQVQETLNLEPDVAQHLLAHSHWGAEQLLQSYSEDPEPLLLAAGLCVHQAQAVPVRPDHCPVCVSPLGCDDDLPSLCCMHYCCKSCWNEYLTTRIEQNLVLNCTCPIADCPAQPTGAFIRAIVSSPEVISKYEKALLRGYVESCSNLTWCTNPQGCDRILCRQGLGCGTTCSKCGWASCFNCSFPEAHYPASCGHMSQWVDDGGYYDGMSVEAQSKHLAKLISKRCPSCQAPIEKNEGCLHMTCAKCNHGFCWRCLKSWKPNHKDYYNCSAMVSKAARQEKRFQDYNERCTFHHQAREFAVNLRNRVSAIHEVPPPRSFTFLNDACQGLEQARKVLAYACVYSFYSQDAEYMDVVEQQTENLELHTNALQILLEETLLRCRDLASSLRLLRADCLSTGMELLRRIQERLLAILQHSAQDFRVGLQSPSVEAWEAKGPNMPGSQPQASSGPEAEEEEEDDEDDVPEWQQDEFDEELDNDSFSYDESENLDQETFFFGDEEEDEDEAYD

[4] = target: T1, von Hippel-Lindau disease tumor suppressor/Dual specificity mitogen-activated protein kinase kinase 2/Dual specificity mitogen-activated protein kinase kinase 1 (Homo sapiens) (UniProt P36507+Q02750+P40337); test: Protac activity against VHL/MEK1/2 in human HT-29 cells harboring with BRAF V600E variant assessed as phosphorylation of MEK at S218/222 residues at 0.3 uM pretreated with MEK1/2 inhibitor, PD0325901 for 2 hrs followed by incubation with compound for 2 hrs by Western blot analysis; assay type: cell-based
T1 sequence (P36507 whole entry, looked up): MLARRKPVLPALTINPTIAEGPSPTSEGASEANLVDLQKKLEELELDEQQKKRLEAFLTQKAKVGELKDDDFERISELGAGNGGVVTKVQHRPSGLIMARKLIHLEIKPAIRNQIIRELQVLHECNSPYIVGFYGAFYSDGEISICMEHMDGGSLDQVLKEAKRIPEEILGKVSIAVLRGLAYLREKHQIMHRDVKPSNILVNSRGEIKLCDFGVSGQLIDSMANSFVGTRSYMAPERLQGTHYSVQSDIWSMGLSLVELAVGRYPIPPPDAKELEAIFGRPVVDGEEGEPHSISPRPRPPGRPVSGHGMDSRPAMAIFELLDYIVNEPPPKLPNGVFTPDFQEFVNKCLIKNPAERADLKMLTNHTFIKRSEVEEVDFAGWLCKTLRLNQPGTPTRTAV
T1 sequence (P40337 whole entry, looked up): as the sequence (P40337 whole entry, looked up) above
T1 sequence (Q02750 whole entry, looked up): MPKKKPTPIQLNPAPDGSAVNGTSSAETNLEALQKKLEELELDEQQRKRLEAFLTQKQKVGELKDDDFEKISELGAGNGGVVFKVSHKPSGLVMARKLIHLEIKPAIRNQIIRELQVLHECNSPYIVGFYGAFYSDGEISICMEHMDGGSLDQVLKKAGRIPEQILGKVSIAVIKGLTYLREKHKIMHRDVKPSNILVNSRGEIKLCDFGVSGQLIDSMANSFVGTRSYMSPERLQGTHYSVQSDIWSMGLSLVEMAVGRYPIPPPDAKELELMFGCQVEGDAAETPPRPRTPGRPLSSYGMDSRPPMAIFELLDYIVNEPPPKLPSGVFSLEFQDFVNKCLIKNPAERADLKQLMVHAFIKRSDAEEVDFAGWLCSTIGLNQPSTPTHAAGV

[5] = target: von Hippel-Lindau disease tumor suppressor/Leukocyte receptor cluster member 8 (Homo sapiens) (UniProt P40337+Q96PV6); test: Protac activity against VHL/LENG8 in human HT-29 cells harboring with BRAF V600E variant assessed as reduction in LENG8 protein level at 0.1 uM after 10 hrs by LC-MS based Volcano plot analysis; assay type: cell-based
[6] = target: T2, von Hippel-Lindau disease tumor suppressor/Dual specificity mitogen-activated protein kinase kinase 2 (Homo sapiens) (UniProt P36507+P40337); test: Protac activity against VHL/MEK2 in human SK-MEL-28 cells harboring with BRAF V600E variant assessed as degradation of MEK2 by measuring reduction in MEK2 protein level at 0.1 to 0.3 uM after 2 hrs by Western blot analysis; assay type: cell-based
T2 sequence (P36507 whole entry, looked up): as the sequence (P36507 whole entry, looked up) above
T2 sequence (P40337 whole entry, looked up): as the sequence (P40337 whole entry, looked up) above

[7] = target: T3, von Hippel-Lindau disease tumor suppressor/Dual specificity mitogen-activated protein kinase kinase 1 (Homo sapiens, UniProt Q02750+P40337, V600E); test: (§1) Protac activity against VHL/MEK1 in human COLO205 cells harboring BRAF V600E variant assessed as degradation of MEK1 after 24 hrs by Western blot analysis; assay type: cell-based
T3 sequence (P40337 whole entry, looked up, stated change not applied): as the sequence (P40337 whole entry, looked up) above
T3 sequence (Q02750 whole entry, looked up, stated change not applied): as the sequence (Q02750 whole entry, looked up) above

[8] = target: T4, von Hippel-Lindau disease tumor suppressor/Dual specificity mitogen-activated protein kinase kinase 1 (Homo sapiens) (UniProt Q02750+P40337); test: as §1; assay type: cell-based
T4 sequence (P40337 whole entry, looked up): as the sequence (P40337 whole entry, looked up) above
T4 sequence (Q02750 whole entry, looked up): as the sequence (Q02750 whole entry, looked up) above

COLO 205 = test: Antiproliferative activity against human COLO205 cells assessed as reduction in cell growth after 3 days by WST8 assay; assay type: functional
[9] = target: T1, von Hippel-Lindau disease tumor suppressor/Dual specificity mitogen-activated protein kinase kinase 2/Dual specificity mitogen-activated protein kinase kinase 1 (Homo sapiens); test: Protac activity against VHL/MEK1/2 in human HT-29 cells harboring with BRAF V600E variant assessed as phosphorylation of ERK at T202/Y204 residues at 0.3 uM pretreated with MEK1/2 inhibitor, PD0325901 for 2 hrs followed by incubation with compound for 10 hrs by Western blot analysis; assay type: cell-based
[10] = target: T2, von Hippel-Lindau disease tumor suppressor/Dual specificity mitogen-activated protein kinase kinase 2 (Homo sapiens); test: Protac activity against VHL/MEK2 in human HT-29 cells harboring with BRAF V600E variant assessed as degradation of MEK2 by measuring MEK2 protein level at 0.3 uM pretreated with VHL ligand, VH 032 for 2 hrs followed by incubation with compound for 10 hrs by Western blot analysis; assay type: cell-based
[11] = Toxicity in Swiss albino mouse assessed as effect on clinical signs at 50 mg/kg, ip; assay type: organism-based; settings: in vivo
[12] = target: T4, von Hippel-Lindau disease tumor suppressor/Dual specificity mitogen-activated protein kinase kinase 1 (Homo sapiens); test: Protac activity against VHL/MEK1 in human HT-29 cells harboring with BRAF V600E variant assessed as degradation of MEK1 by measuring MEK1 protein level at 0.3 uM pretreated with NEDD8-activating enzyme inhibitor, MLN4924 for 2 hrs followed by incubation with compound for 10 hrs by Western blot analysis; assay type: cell-based
[13] = target: T3, von Hippel-Lindau disease tumor suppressor/Dual specificity mitogen-activated protein kinase kinase 1; test: (§2) Protac activity against VHL/MEK1 in human UACC257 cells harboring BRAF V600E variant assessed as degradation of MEK1 after 24 hrs by Western blot analysis; assay type: cell-based
[14] = target: T4, von Hippel-Lindau disease tumor suppressor/Dual specificity mitogen-activated protein kinase kinase 1 (Homo sapiens); test: as §2; assay type: cell-based
[15] = target: T1, von Hippel-Lindau disease tumor suppressor/Dual specificity mitogen-activated protein kinase kinase 2/Dual specificity mitogen-activated protein kinase kinase 1 (Homo sapiens); test: Protac activity against VHL/MEK1/2 in human SK-MEL-28 cells harboring with BRAF V600E variant assessed as phosphorylation of MEK at S218/222 residues at 0.3 uM pretreated with MEK1/2 inhibitor, PD0325901 for 2 hrs followed by incubation with compound for 2 hrs by Western blot analysis; assay type: cell-based
[16] = target: T4, von Hippel-Lindau disease tumor suppressor/Dual specificity mitogen-activated protein kinase kinase 1 (Homo sapiens); test: Protac activity against VHL/MEK1 in human SK-MEL-28 cells harboring with BRAF V600E variant assessed as degradation of MEK1 at 0.1 to 0.3 uM after 4 hrs by Western blot analysis; assay type: cell-based
[17] = target: T4, von Hippel-Lindau disease tumor suppressor/Dual specificity mitogen-activated protein kinase kinase 1 (Homo sapiens); test: Protac activity against VHL/MEK1 in human HT-29 cells harboring with BRAF V600E variant assessed as degradation of MEK1 by measuring MEK1 protein level at 0.3 uM pretreated with proteasome inhibitor, MG-132 for 2 hrs followed by incubation with compound for 10 hrs by Western blot analysis; assay type: cell-based
[18] = target: T1, von Hippel-Lindau disease tumor suppressor/Dual specificity mitogen-activated protein kinase kinase 2/Dual specificity mitogen-activated protein kinase kinase 1 (Homo sapiens); test: Protac activity against VHL/MEK1/2 in human SK-MEL-28 cells harboring with BRAF V600E variant assessed as phosphorylation of ERK at T202/Y204 residues at 0.3 uM pretreated with NEDD8-activating enzyme inhibitor, MLN4924 for 2 hrs followed by incubation with compound for 10 hrs by Western blot analysis; assay type: cell-based
[19] = target: T4, von Hippel-Lindau disease tumor suppressor/Dual specificity mitogen-activated protein kinase kinase 1 (Homo sapiens); test: Protac activity against VHL/MEK1 in human HT-29 cells harboring with BRAF V600E variant assessed as degradation of MEK1 by measuring reduction in MEK1 protein level at 0.1 to 0.3 uM after 2 hrs by Western blot analysis; assay type: cell-based
[20] = target: von Hippel-Lindau disease tumor suppressor/Dual specificity mitogen-activated protein kinase kinase 2 (Homo sapiens, UniProt P36507+P40337, V600E); test: (§3) Protac activity against VHL/MEK2 in human SK-MEL-28 cells harboring BRAF V600E variant assessed as degradation of MEK2 after 24 hrs by Western blot analysis; assay type: cell-based
[21] = target: T2, von Hippel-Lindau disease tumor suppressor/Dual specificity mitogen-activated protein kinase kinase 2 (Homo sapiens); test: as §3; assay type: cell-based
[22] = target: T4, von Hippel-Lindau disease tumor suppressor/Dual specificity mitogen-activated protein kinase kinase 1 (Homo sapiens); test: Protac activity against VHL/MEK1 in human HT-29 cells harboring with BRAF V600E variant assessed as degradation of MEK1 by measuring MEK1 protein level at 0.3 uM pretreated with MEK1/2 inhibitor, PD0325901 for 2 hrs followed by incubation with compound for 10 hrs by Western blot analysis; assay type: cell-based
[23] = target: T2, von Hippel-Lindau disease tumor suppressor/Dual specificity mitogen-activated protein kinase kinase 2 (Homo sapiens); test: Protac activity against VHL/MEK2 in human SK-MEL-28 cells harboring with BRAF V600E variant assessed as degradation of MEK2 at 0.1 to 0.3 uM by Western blot analysis; assay type: cell-based; settings: TDE = time-dependent effect
[24] = target: T2, von Hippel-Lindau disease tumor suppressor/Dual specificity mitogen-activated protein kinase kinase 2 (Homo sapiens); test: Protac activity against VHL/MEK2 in human HT-29 cells harboring with BRAF V600E variant assessed as degradation of MEK2 by measuring reduction in MEK2 protein level at 0.1 to 0.3 uM after 2 hrs by Western blot analysis; assay type: cell-based
[25] = target: T1, von Hippel-Lindau disease tumor suppressor/Dual specificity mitogen-activated protein kinase kinase 2/Dual specificity mitogen-activated protein kinase kinase 1 (Homo sapiens); test: Protac activity against VHL/MEK1/2 in human SK-MEL-28 cells harboring with BRAF V600E variant assessed as phosphorylation of MEK at S218/222 residues at 0.3 uM pretreated with NEDD8-activating enzyme inhibitor, MLN4924 for 2 hrs followed by incubation with compound for 10 hrs by Western blot analysis; assay type: cell-based

Cc1ncsc1-c1ccc([C@H](C)NC(=O)[C@@H]2C[C@@H](O)CN2C(=O)[C@@H](NC(=O)CCCCCCCCCCNCCCONC(=O)c2ccc(F)c(F)c2Nc2ccc(I)cc2F)C(C)(C)C)cc1
growth inhibition (GI) (HT-29 [1]): Dose-dependent effect | GI50 (HT-29 [1]; HT-29, 72 h): 130 nM | Activity (HT-29 [2]): inactive | Activity [3]: Active | Activity [4]: inactive | Activity [5]: Active | Activity [6]: Active | DC50 [7]: 18 nM | Activity [8]: Dose-dependent effect | growth inhibition (GI) (COLO 205): Dose-dependent effect | GI50 (COLO 205; COLO 205, 72 h): 30 to 200 nM | Activity [9]: inactive | Activity [10]: inactive | Activity [11]: Non-Toxic | Activity [12]: inactive | DC50 [13]: 56 nM | Activity [14]: Dose-dependent effect | Activity [15]: inactive | Activity [16]: Active | Activity [17]: inactive | Activity [18]: inactive | Activity [19]: Active | DC50 [20]: 9.3 nM | Activity [21]: Dose-dependent effect | Activity [22]: inactive | Activity [23]: Tde | Activity [24]: Active | Activity [25]: inactive
